Laboratory results reported in patent publication US20180044428A1, “COMPOSITIONS AND METHODS FOR ENHANCING THE EFFICACY OF CANCER THERAPY” (PROVIDENCE HEALTH & SERVICES-OREGON, priority 2015, published 2018).

Key:
Format in all cases: in vivo, C57BL/6 mice
Panc02 tumors = experiment: Panc02 pancreatic adenocarcinoma model, immunochemotherapy (tumor area, survival); settings: gemcitabine 100 mg/kg i.p. twice weekly alone
Description: The Panc02 murine pancreatic adenocarcinoma cell line (Priebe et al., 1992, Cancer Chemother Pharmacol; 29:485-9. C57BL/6) was kindly provided by Dr. Woo (Mount Sinai School of Medicine, N.Y.). 6-8 week old C57BL/6 mice were obtained from Charles River Laboratories (Wilmington, Mass.) for use in these experiments. All animal protocols were approved by the EACRI IACUC (Animal Welfare Assurance No. A3913-01).
Mice bearing 10-14 day old tumors were treated with anti-OX40 (OX86, 250 μg intraperitoneally, BioXcell, West Lebanon, N.H.), anti-CTLA4 (9D9, 250 μg intraperitoneally, BioXcell) or the combination. Chemotherapy consisted of 100 mg/kg Gemcitabine (Eli Lilly and Co., Indianapolis, Ind.) intraperitoneally twice per week for 2 or 3 weeks. Anti-interleukin-4 (Anti-IL-4, 11B11, 100 μg intraperitoneally, BioXcell) was delivered intraperitoneally twice per week for 3 weeks.
Data were analyzed and graphed using Prism (GraphPad Software, La Jolla, Calif.). Individual data sets were compared using Student's T-test. Analysis across multiple groups was performed using ANOVA with individual groups assessed using Tukey's comparison. Kaplan Meier survival curves were compared using a log-rank test.

[1] = tested on: peripheral blood immune cells; experiment: Quantitative flow cytometry of peripheral blood after immunochemotherapy
Description: For analysis of tumor-infiltrating cells, the tumor was dissected into approximately 2 mm fragments followed by agitation in lmg/mL collagenase (Invitrogen), 100μg/mL hyaluronidase (Sigma, St Louis, Mo.), and 20 mg/mL DNase (Sigma) in PBS for 1 hour at room temperature. The digest was filtered through 100 μm nylon mesh to remove macroscopic debris. For flow cytometry analysis of infiltrating cells, cell suspensions were washed and stained with directly conjugated fluorescent antibodies. For analysis of lymph nodes, lymph nodes were crushed, washed and surface stained, then cells were washed and fixed using a T regulatory cell staining kit (EBioscience) and stained for transcription factors. To measure cytokine responses, lymph node cells were plated to wells pre-coated with 1 μg/ml anti-CD3 for 4 hours in the presence of Golgiplug (BD biosciences). Cells were then surface stained, washed and fixed using a T regulatory cell staining kit (EBioscience) before intracellular cytokine staining. For analysis of cell numbers in blood, whole blood was harvested into ethylenediaminetetraacetic acid (EDTA) tubes from live mice via the saphenous vein, and 5-25 μl of fresh blood was stained directly with fluorescent antibody cocktails (see, Crittenden et al., PLoS One, 2013. 8(7): e69527). A known number of AccuCheck fluorescent beads (Invitrogen) were added to each sample, then red blood cells were lysed with Cal-Lyse whole blood lysing solution (Invitrogen), and samples analyzed on a BD LSRII flow cytometer. The absolute number of cells in the sample was determined based on comparing cellular events to bead events (cells/μl).

F4/80+ macrophages = experiment: Immunohistology for F4/80+ macrophages in Panc02 tumors; settings: gemcitabine, tumors harvested after one week of treatment
Description: For immunohistology, tumors were fixed overnight in Z7 zinc based fixative (Lykidis et al., 2007, Nucleic acids research; 35:e85). Tissue was then dehydrated through graded alcohol to xylene, incubated in molten paraffin, and then buried in paraffin. Sections (5 μm) were cut and mounted for analysis. Tissue sections were boiled in ethylenediaminetetraacetic acid (EDTA) buffer as appropriate for antigen retrieval. Primary antibody binding was visualized with AlexaFluor 488 conjugated secondary antibodies (Molecular Probes, Eugene, Oreg.) and mounted with DAPI (Invitrogen) to stain nuclear material. Images were acquired using: a Nikon TE2000S epifluorescence microscope, Nikon DsFi1 digital camera and Nikon NIS-Elements imaging software. Multiple images were taken at high resolution across the tumor and digitally merged to make a single margin-to-margin overview of the tumor.

[2] = following one cycle of chemoimmunotherapy

Nc1ccn([C@@H]2O[C@H](CO)[C@@H](O)C2(F)F)c(=O)n1 [gemcitabine] was tested, and the survival (Panc02 tumors) was “significantly extended survival”, the tumor growth (Panc02 tumors) was “transient tumor delay” and the “T cell populations in peripheral blood” value ([1]; following chemotherapy) was “not decreased”. For the same compound, the “CD11b+Gr1hi neutrophils in the peripheral blood” value [1, 2] was “significantly decreased”, the “CD11b+Ly6C+Ly6Glo immature myeloid cells in the peripheral blood” value [1, 2] was “significantly decreased” and the “macrophage infiltration throughout the tumor” value (F4/80+ macrophages) was “increased”.
